These results are taken from US20170215424A1 (SUMITOMO CHEMICAL COMPANY, LIMITED, priority 2014, published 2017).

Holding throughout (type): in vivo
One experiment concerns Culexpipienspallens. As to the kind of experiment: Test Example 3: spray knockdown test on Culexpipienspallens imagoes. The conditions noted are these: 0.25 h, oil solution 0.1% w/v, 0.5 ml sprayed, within 15 minutes, read-out: knockdown ratio of the test vermin within 15 minutes. As to the method: A formulation containing each of the present amide compounds (1), (2), (4), (5), (6), (7), (8), (9), (10), (12), (13), (14), (15), (16), (18), (19), (21), (22), (24), (25), (26) and (27) prepared in accordance with Formulation Example 7 was diluted with an isopropyl alcohol/deodorized kerosine=1/9 mixed liquid so that the active ingredient concentration became 0.1% w/v, to prepare a drug solution for a test.
Ten imagoes of Culexpipienspallens were allowed to release in a polyethylene cup (bottom surface diameter 10.6 cm), and the cup was covered with a 16 mesh nylon gauze. The polyethylene cup was arranged on a bottom of a chamber for a test (bottom surface: 46 cm×46 cm, height: 70 cm). From a height of 30 cm from an upper surface of the polyethylene cup, 0.5 ml of the drug solution for a test was sprayed using a spray gun (spraying pressure 0.4 kg/cm^2). After spraying, the cup was immediately taken out from the chamber for a test, the number of knocked down vermin was counted for 15 minutes with time, and a knockdown ratio was obtained. The knockdown ratio was calculated by the following expression.
(§1) Knockdown ratio (%)=(number of knocked down vermin/number of test vermin)×100

A further experiment deals with Blattella germanica. As to the kind of experiment: Test Example 1: spray knockdown test on Blattella germanica. The conditions noted are these: 0.25 h, 10 vermin, oil solution 2.0% w/v, 1.5 ml sprayed, within 15 minutes, read-out: knockdown ratio of test vermin within 15 minutes. Here is the method:
A formulation containing each of the present amide compounds (1), (2), (4), (8), (12), (13), (14), (15), (16), (18), (20), (24), (25), (27) and (28) prepared in accordance with Formulation Example 7 was diluted with an isopropyl alcohol/deodorized kerosine=1/9 mixed liquid so that the active ingredient concentration became 2.0% w/v, to prepare a drug solution for a test.
Ten vermin of Blattella germanica (male female each five vermin) were allowed to release in a container for a test in which a butter was applied on an inner wall (diameter 8.75 cm, height 7.5 cm, bottom face covered with 16 mesh wire net), and the container was arranged on a bottom of a chamber for a test (bottom surface: 46 cm×46 cm, height: 70 cm). From a height of 60 cm from an upper side of the container, 1.5 ml of the drug solution for a test was sprayed using a spray gun (spraying pressure 0.42 kg/cm^2). Thirty seconds after spraying, the container was taken out from the chamber for a test, the number of vermin which had been knocked down was counted for 15 minutes with time, and a knockdown ratio was obtained. The knockdown ratio was calculated by the following expression.
as §1

Another experiment deals with Spodopteralitura. The experiment in a line: Test Example 7: cabbage spray test on fourth instar larvae of Spodopteralitura. The conditions noted are these: 500 ppm spray, 20 ml/cup, after 4 days. As to the method:
A formulation containing the present amide compound (25) prepared in accordance with Formulation Example 15 was diluted with water so that active ingredient concentration became 500 ppm, to preparer a spray solution for a test. On the other hand, a cabbage was planted in a polyethylene cup, and grown until a third true leaf or a fourth true leaf developed. On the cabbage, the spray solution for a test was sprayed at a rate of 20 ml/cup. After the drug solution which had been spraying-treated on the cabbage was dried, ten fourth instar larvae of Spodopteralitura were parasitized. The number of live vermin of Spodopteralitura on a cabbage leaf was investigated after 4 days, and a controlling value was obtained according to the following expression. Controlling value (%)={1−(Cb×Tai)/(Cai×Tb)}×100 In addition, letters in the equation represent the following meanings. Cb: Number of vermin before treatment of non-treated section Cai: Number of vermin at observation of non-treated section Tb: Number of vermin before treatment of treated-section Tai: Number of vermin at observation of treated-section

Bounds are passed on as bounds.

Take `O=C(NCC1CCOC1)C1=NOC(COCc2ccccc2)CC1` (stereo not shown) [present amide compound (26), N-(tetrahydrofuran-3-ylmethyl)-6-benzyloxymethyl-5,6-dihydro-4H-[1,2]oxazine-3-carboxamide]: in the experiment with Culexpipienspallens, the pest or weed control at 0.1 % strength is no less than 80%. On to `O=C(NCC1CCOC1)C1=NOC(CCCCCOCc2ccccc2)C1` (stereo not shown) [present amide compound (15), N-(tetrahydrofuran-3-ylmethyl)-5-(5-benzyloxypentyl)-4,5-dihydroisoxazole-3-carboxamide], for which the pest or weed control at 2 % strength in the experiment on Blattella germanica was no less than 80%. Further, the pest or weed control at 0.1 % strength in the experiment with Culexpipienspallens was no less than 80%. Take `O=C(NCC1CCOC1)C1=NOC(COc2ccccc2)C1` (stereo not shown) [present amide compound (5), N-(tetrahydrofran-3-ylmethyl)-5-(phenoxymethyl)-4,5-dihydro isoxazole-3-carboxamide]: in the experiment on Culexpipienspallens, the pest or weed control at 0.1 % strength is no less than 80%. Turning to `O=C(NCC1CCOC1)C1=NOC(CCc2ccccc2)C1` (stereo not shown) [present amide compound (4), N-(tetrahydrofuran-3-ylmethyl)-5-phenethyl-4,5-dihydroisoxazole-3-carboxamide], the pest or weed control at 2 % strength with Blattella germanica is no less than 80%. Moreover, in the experiment with Culexpipienspallens, the pest or weed control at 0.1 % strength was no less than 80%.

As for `O=C(NCC1CCOC1)C1=NOC(CCCCCCOCc2ccccc2)C1` (stereo not shown) [present amide compound (16), N-(tetrahydrofuran-3-ylmethyl)-5-(6-benzyloxyhexyl)-4,5-dihydroisoxazole-3-carboxamide], the pest or weed control at 2 % strength with Blattella germanica was no less than 80%. In the experiment on Culexpipienspallens, the pest or weed control at 0.1 % strength is no less than 80%. Take `O=C(NCC1CCOC1)C1=NOC(CCOCc2ccccc2)C1` (stereo not shown) [present amide compound (12), N-(tetrahydrofuran-3-ylmethyl)-5-(2-benzyloxyethyl)-4,5-dihydroisoxazole-3-carboxamide]: the pest or weed control at 2 % strength with Blattella germanica was no less than 80%. Further, in the experiment with Culexpipienspallens, the pest or weed control at 0.1 % strength is no less than 80%. Consider `O=C(NCC1CCOC1)C1=NOC(CCCOc2ccccc2)C1` (stereo not shown) [present amide compound (7), N-(tetrahydrofran-3-ylmethyl)-5-(3-phenoxypropyl)-4,5-dihydroisoxazole-3-carboxamide], for which, in the experiment with Culexpipienspallens, the pest or weed control at 0.1 % strength was no less than 80%. Take `CCCCC1CC(C(=O)NCC2CCOC2)=NO1` (stereo not shown) [present amide compound (1), N-(tetrahydrofuran-3-ylmethyl)-5-butyl-4,5-dihydroisoxazole-3-carboxamide]: the pest or weed control at 2 % strength in the experiment on Blattella germanica was no less than 80%. Moreover, the pest or weed control at 0.1 % strength in the experiment with Culexpipienspallens is no less than 80%.

On to `CCCCCC1CC(C(=O)NCC2CCOC2)=NO1` (stereo not shown) [present amide compound (2), N-(tetrahydrofuran-3-ylmethyl)-5-pentyl-4,5-dihydroisoxazole-3-carboxyamide], for which the pest or weed control at 2 % strength in the experiment with Blattella germanica is no less than 80%. The pest or weed control at 0.1 % strength in the experiment on Culexpipienspallens was no less than 80%. With `O=C(NCC1CCOC1)C1=NOC(CCCOCCc2ccccc2)C1` (stereo not shown) [present amide compound (18), N-(tetrahydrofuran-3-ylmethyl)-5-(3-phenethyloxypropyl)-4,5-dihydroisoxazole-3-carboxamide], the pest or weed control at 2 % strength with Blattella germanica is no less than 80%. For the same compound, the pest or weed control at 0.1 % strength in the experiment with Culexpipienspallens was no less than 80%.

As to `O=C(NCC1CCOC1)C1=COC(COCc2ccccc2)CC1` (stereo not shown), in the experiment on Blattella germanica, the pest or weed control at 2 % strength was no less than 80%. Take `O=C(NCC1CCOC1)C1=NOC(CCCOCc2ccccc2)C1` (stereo not shown) [present amide compound (13), N-(tetrahydrofuran-3-ylmethyl)-5-(3-benzyloxypropyl)-4,5-dihydroisoxazole-3-carboxamide]: the pest or weed control at 2 % strength with Blattella germanica was no less than 80%. Moreover, in the experiment with Culexpipienspallens, the pest or weed control at 0.1 % strength is no less than 80%. Consider `O=C(NCC1CCOC1)C1=NOC(COc2ccccc2)CC1` (stereo not shown) [present amide compound (24), N-(tetrahydrofuran-3-ylmethyl)-6-phenoxymethyl-5,6-dihydro-4H-[1,2]oxazine-3-carboxamide], for which, in the experiment on Blattella germanica, the pest or weed control at 2 % strength is no less than 80%. In addition, in the experiment with Culexpipienspallens, the pest or weed control at 0.1 % strength was no less than 80%. For the compound `O=C(NCC1CCOC1)C1=NOC(COc2ccc3ccccc3c2)C1` (stereo not shown) [present amide compound (19), N-(tetrahydrofuran-3-ylmethyl)-5-(2-naphthyloxymethyl)-4,5-dihydroisoxazole-3-carboxamide], the pest or weed control at 0.1 % strength in the experiment on Culexpipienspallens is no less than 80%. Take `O=C(NCC1CCOC1)C1=NOC(CCCCOc2ccccc2)C1` (stereo not shown) [present amide compound (8), N-(tetrahydrofuran-3-ylmethyl)-5-(4-phenoxybutyl)-4,5-dihydroisoxazole-3-carboxamide]: in the experiment with Blattella germanica, the pest or weed control at 2 % strength is no less than 80%. Further, in the experiment with Culexpipienspallens, the pest or weed control at 0.1 % strength was no less than 80%. With `O=C(NCC1CCOC1)C1=NOC(CCCCCCOc2ccccc2)C1` (stereo not shown) [present amide compound (10), N-(tetrahydrofuran-3-ylmethyl)-5-(6-phenoxyhexyl)-4,5-dihydroisoxazole-3-carboxamide], the pest or weed control at 0.1 % strength in the experiment with Culexpipienspallens is no less than 80%. Still for that read-out and setting: the figure for `CC1C(C(=O)NCC2CCOC2)=NOC1COc1ccccc1` (stereo not shown) [present amide compound (22), N-(tetrahydrofuran-3-ylmethyl)-4-methyl-5-phenoxymethyl-4,5-dihydroisoxazole-3-carboxamide] is no less than 80%. On to `O=C(NCC1CCOC1)C1=NOC(COc2cccc(Cl)c2)CC1` (stereo not shown) [present amide compound (25), N-(tetrahydrofuran-3-ylmethyl)-6-(3-chloro-phenoxymethyl)-5,6-dihydro-4H-[1,2]oxazine-3-carboxamide], for which the pest or weed control at 2 % strength in the experiment with Blattella germanica is no less than 80%. Also, the pest or weed control at 0.1 % strength in the experiment with Culexpipienspallens is no less than 80%. The compound also showed a controlling value in the experiment with Spodopteralitura of no less than 80%. As to `O=C(NCC1CCOC1)C1=NOC(COCc2ccc3ccccc3c2)C1` (stereo not shown) [present amide compound (20), N-(tetrahydrofuran-3-ylmethyl)-5-(2-naphthylmethyloxymethyl)-4,5-dihydroisoxazole-3-carboxamide], the pest or weed control at 2 % strength with Blattella germanica was no less than 80%. `O=C(NCC1CCOC1)C1=NOC(CCCCOCc2ccccc2)C1` (stereo not shown) [present amide compound (14), N-(tetrahydrofuran-3-ylmethyl)-5-(4-benzyloxybutyl)-4,5-dihydroisoxazole-3-carboxamide]: the pest or weed control at 2 % strength in the experiment with Blattella germanica was no less than 80%. Besides, in the experiment on Culexpipienspallens, the pest or weed control at 0.1 % strength was no less than 80%. Regarding `O=C(NCC1CCOC1)C1=NOC(CCOc2ccccc2)C1` (stereo not shown) [present amide compound (6), N-(tetrahydrofran-3-ylmethyl)-5-(2-phenoxyethyl)-4,5-dihydroisoxazole-3-carboxamide], the pest or weed control at 0.1 % strength in the experiment with Culexpipienspallens was no less than 80%. For the compound `O=C(NCC1CCOC1)C1=COC(COc2ccccc2)CC1` (stereo not shown) [present amide compound (27), N-(tetrahydrofuran-3-ylmethyl)-6-phenoxymethyl-5,6-dihydro-4H-pyrane-3-carboxamide], the pest or weed control at 2 % strength in the experiment with Blattella germanica is no less than 80%. Moreover, in the experiment on Culexpipienspallens, the pest or weed control at 0.1 % strength is no less than 80%. For the compound `O=C(NCC1CCOC1)C1=NOC(CCCOCc2ccc3ccccc3c2)C1` (stereo not shown) [present amide compound (21), N-(tetrahydrofuran-3-ylmethyl)-5-(2-naphthylmethyloxypropyl)-4,5-dihydroisoxazole-3-carboxamide], the pest or weed control at 0.1 % strength in the experiment with Culexpipienspallens was no less than 80%.
